Laboratory results: paper PMC8947478, “Novel, First-in-Human, Oral PCLX-001 Treatment in a Patient with Relapsed Diffuse Large B-Cell Lymphoma” (Current Oncology, 2022)
Entries after “also recorded” stand apart in the source; their conditions may differ. Like-named read-outs stand apart in the source and are kept apart here.

Columns and labels:
[1] = animal models; cited from earlier work
[2] = test system: hematologic and lymphoma cell lines; parameters: method as in PMID 33093447; conditions: tissue culture; cited from earlier work
[3] = test system: human cancers grown in immunodeficient mice; conditions: cited from earlier work
[4] = Pharmacokinetic analysis of plasma after oral PCLX-001 (UHPLC-MS, two-compartment model); format: in vivo, human; conditions: patient
Description: The primary pharmacokinetic analysis endpoints were:
Tmax is the time at which the maximum plasma concentration of PCLX-001 is achieved.
Cmax is the maximum plasma concentration of PCLX-001.
The patient was dosed with oral doses of PCLX-001 20 mg. After dosing, the blood samples (3 mL volume) were serially collected into heparinized tubes from a right forearm butterfly cannula. All blood fluid specimens were frozen and later assayed using a validated UHPLC-MS detection method.
PK Solver 2.0 freeware (https://www.boomer.org/boomer/software/pksolver.zip; accessed 26 November 2021) was used to determine the single dose pharmacokinetic parameters using a two-compartment model. The terminal phase rate constant (λz) was estimated by applying exponential linear regression to the concentrations in the terminal phase, and the apparent terminal half-life (t 1/2) was estimated as 0.693/λz. The area under the concentration (AUC) vs. time curve from the time of injection to the last (Clast) measured concentration (AUC0-tlast) was calculated. […] Oral body clearance (CLoral) was calculated as the ratio of the dose to the AUC0–∞. The area under the first moment concentration vs. time curve (AUMC) was estimated as the sum of the area under the C × t vs. t curve from time zero to Clast, plus the ratios of Clast × t/λz and Clast/λz 2. The mean residence time (MRT) was calculated as the ratio of AUMC to AUC0–∞). The apparent volume of distribution of steady-state (Vdss) was calculated as the product of CL × MRT.

[5] = Toxicity assessment in phase I trial (CTCAE version 5.0, DLT); format: in vivo, human; conditions: patient, 20 mg oral daily
Description: The subject was assessed for toxicity using daily diary entries, clinical assessments at baseline, day 8, day 15, day 22, and day 28. Dose-limiting toxicities (DLTs) were defined as the following cycle 1 CTCAE version 5.0 adverse events: Gr 4 platelets, Gr ≥ 3 platelets with bleeding and/or transfusions, Gr 4 ANC for ≥ 7 days, Gr ≥ 3 febrile neutropenia, and Gr ≥ 3 non-hematological toxicity.

HGAL [6] = test system: HGAL; parameters: method as in PMID 33093447; conditions: multiple Burkitt Lymphoma and Diffuse Large B cell lymphoma cell lines; cited from earlier work
[7] = test system: T cells, B cells, and monocyte population; assay: Flow cytometry of live PBMC populations in the treated patient; format: in vivo, human
Description: (§1) Peripheral blood was collected from the patient at each sampling point (Screen, Day 1, and Day 28 of treatment) by venipuncture according to normal phlebotomy practice in 2 × 8 mL BD Vacutainer® CPT™ Tubes. Samples were immediately mixed by gentle inversion 10 times and process for PBMC isolation within 1 h. After centrifugation (1800× g for 20 min) at room temperature (18–25 °C) in a swinging bucket rotor (swing-out head), the mononuclear cells and platelets (referred to as PBMC) were carefully collected as the whitish layer just above the polyester gel and under the plasma layer, transferred into 9 mL freezing media (8 mL Fetal Bovine Serum and 1 mL DMSO), and stored at −70 °C or below until flow cytometry analysis.
(§2) PBMC were recovered by centrifugation (400× g for 5 min), washed in RPMI culture media, resuspended in PBS, and prepared for FACS analysis. PBMC were first labeled with Zombie Aqua™ Fixable Viability kit (1/100, 20 min at 4 °C; BioLegend, San Diego, CA, USA) for exclusion of dead cells, blocked with Human TruStain FcX Fc receptor blocking solution (5/100, 10 min at room temperature, BioLegend), then stained for extracellular markers using antibodies ECD-CD3 (clone UCHT1) and PE-Cy7-CD4 (clone SFCI12T4D11) from Beckman Coulter (Missaugua, ON, Canada) PerCp-Cy5.5-CD8 (SK-1) and BV-785CD19 (clone HIB19) from BioLegend, and PE-CF594-CD14 (clone MΦPG) from BD Bioscience (Mississauga, ON, Canada) for 20 min at 4 °C. The cells were then fixed and permeabilized using the eBioscience Intracellular Fixation and Permeabilization buffer set (Invitrogen, Mississauga, ON, Canada) and stained for intracellular markers AF-488-HGAL (clone 1H1-A7, eBioscience), AF-488-Lyn (Lyn-01, ab1890, Abcam, Cambridge, UK), and homemade monoclonal antibodies AF-700-NMT1(clone 6F8D5) and APC-NMT2 (clone 6C5E8), as previously described, in parallel with relevant isotype controls for at least 30 min at 4 °C. Prior to applying in the test, intracellular antibodies were first labeled with different fluorochromes using Lightning-Link conjugation kits (Abcam) and titrated to achieve the best concentration. Finally, samples were acquired on a Fortessa X-20 flow cytometer (BD Bioscences, Faculty of Medicine and Dentistry Flow Cytometry Facility, University of Alberta). Data were analyzed using FlowJo software (TreeStar, Ashland, OR, USA, version 10.8).

[8] = cited from earlier work
kinase = test system: kinase; parameters: method as in PMID 33093447; conditions: KINOMEscan; cited from earlier work
HGAL [9] = assay: Flow cytometry of intracellular HGAL level in PBMC populations; format: in vivo, human
Description: as §1, §2

Lyn [10] = test system: Lyn; parameters: method as in PMID 33093447; conditions: multiple Burkitt Lymphoma and Diffuse Large B cell lymphoma cell lines; cited from earlier work
[11] = test system: relapsed diffuse large B-cell lymphoma; assay: Efficacy assessment by imaging (Lugano classification criteria); format: in vivo, human; conditions: patient, 20 mg oral daily, CT on day 29
Text: The subject had baseline cross-sectional and PET imaging. Protocol-defined imaging was CT every 2 cycles and PET every 6 cycles or as clinically indicated. Evaluation of response was by the Lugano classification criteria for the evaluation of non-Hodgkin lymphoma.

Lyn [12] = assay: Flow cytometry of intracellular Lyn level in PBMC populations; format: in vivo, human
Description: as §1, §2

[13] = test system: Bruton tyrosine kinase (BTK); parameters: method as in PMID 33093447; conditions: models of human lymphoma; cited from earlier work
hERG = conditions: preclinical testing; cited from earlier work
NMT2 = target: T1, NMT2 (Homo sapiens, UniProt O60551); assay: Flow cytometry of intracellular NMT2 level in PBMC populations; format: in vivo
T1 construct: homemade monoclonal antibodies AF-700-NMT1(clone 6F8D5) and APC-NMT2 (clone 6C5E8); endogenous in cells; host or cells: patient peripheral blood mononuclear cells (CD4+, CD8+, CD19+, CD14+ populations)
T1 sequence (O60551 1-498): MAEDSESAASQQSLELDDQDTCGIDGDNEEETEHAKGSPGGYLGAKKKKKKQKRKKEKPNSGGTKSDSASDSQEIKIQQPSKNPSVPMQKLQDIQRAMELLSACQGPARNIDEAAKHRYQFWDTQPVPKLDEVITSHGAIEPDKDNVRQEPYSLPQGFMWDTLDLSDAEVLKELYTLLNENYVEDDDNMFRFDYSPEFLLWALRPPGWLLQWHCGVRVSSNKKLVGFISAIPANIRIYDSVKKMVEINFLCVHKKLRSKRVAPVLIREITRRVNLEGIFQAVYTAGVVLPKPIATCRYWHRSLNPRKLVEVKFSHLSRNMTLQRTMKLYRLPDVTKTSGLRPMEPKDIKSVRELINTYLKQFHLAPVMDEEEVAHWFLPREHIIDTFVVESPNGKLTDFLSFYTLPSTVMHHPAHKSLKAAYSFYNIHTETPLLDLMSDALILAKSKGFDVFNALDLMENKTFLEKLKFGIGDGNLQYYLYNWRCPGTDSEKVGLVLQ
Description: as §1, §2

[14] = 20 mg oral, Day 1 single dose, plasma
[15] = 20 mg daily, 28 days, all populations

Compound: Cc1c(NS(=O)(=O)c2c(Cl)cc(-c3ccnc(N4CCNCC4)c3)cc2Cl)c(CC(C)C)nn1C [PCLX-001, 2,6-dichloro-N-(3-isobutyl-1,5-dimethyl-1H-pyrazol-4-yl)-4-(2-(piperazin-1-yl)pyridin-4-yl)benzenesulfonamide]
- oral bioavailability [1]: complete oral bioavailability
- inhibition of hematologic and lymphoma cell lines [2]: markedly inhibits
- response in solid cancers [3]: tumour responses
- response of human cancers grown in immunodeficient mice [3]: complete remissions
- AUC(0-inf) ([4]; human, plasma, po, 20 mg, 20 mg oral daily, Day 15, plasma, read-out: Day 15 AUC0–∞): 2640 ng·h/mL
- Cmax ([4]; human, plasma, po, 20 mg, 20 mg oral, Day 1 single dose, plasma, read-out: Cmax): 278 ng/mL
- AUC(0-inf) ([4]; human, plasma, po, 20 mg, 20 mg oral, first dose (Day 1), plasma, read-out: AUC0–∞): 2360 ng·h/mL
- half-life ([4]; human, plasma, po, 20 mg, 20 mg oral, single dose, read-out: T ½ (apparent terminal half-life) (converted)): 16 h
- MRT ([4]; human, plasma, 20 mg oral, single dose): 18.6 h
- Tmax ([4]; human, 20 mg oral, Day 1 single dose, plasma): 1.1 h
- Day 22 pre-dose plasma concentration ([4]; 20 mg oral daily, Day 22 pre-dose (trough)): 51.4 ng/mL
- drug accumulation in plasma after repeated daily dosing ([4]; 20 mg oral daily, first dose AUC vs day 15 AUC): without systemic accumulation of drug by day 15; also recorded: no evidence of drug accumulation
- AUC0-tlast [4, 14]: 1701.33 ng·h/mL
- Cmax [4, 14]: 278.23 ng/mL
- AUMC ([4]; 20 mg oral, single dose): 43,883.76 ng/mL.h^2
- CLoral ([4]; 20 mg oral, single dose): 8.4 L/h
- T ½ (apparent terminal half-life) ([4]; 20 mg oral, single dose): 16.42 h
- Vdss ([4]; 20 mg oral, single dose): 156.49 L
- dose-limiting toxicities ([5]; 28-day cycle): did not experience any dose-limiting toxicities; also recorded: no protocol-defined dose-limiting toxicities
- hematopoietic profile and biochemistry ([5]; throughout the trial): remained normal; also recorded: no evidence of toxicity to hematopoietic function, liver function, or kidney function
- HGAL protein level in vitro (HGAL [6]): significantly decreased
- effect on live T cell, B cell and monocyte populations ([7]; 28 days of PCLX-001 treatment, 20 mg daily): only marginally affected
- CD19+ B cells, % of population ± CV, Day 28 ([7]; live PBMC, 28 days of 20 mg daily, untreated: Screening 0.71, Day 1 1.18): 0.59 ± 0.50%
- CD14+ monocytes, % of population ± CV, Day 28 ([7]; live PBMC, 28 days of 20 mg daily, untreated: Screening 5.01, Day 1 14.2): 4.51 ± 0.42%
- CD8+ T cells, % of population ± CV, Day 28 ([7]; live PBMC, 28 days of 20 mg daily, untreated: Screening 25.1, Day 1 23.1): 22.5 ± 0.31%
- CD4+ T cells, % of population ± CV, Day 28 ([7]; live PBMC, 28 days of 20 mg daily, untreated: Screening 40.2, Day 1 42.5): 46.8 ± 0.22%
- Total T cells (CD3+), % of population ± CV, Day 28 ([7]; live PBMC, 28 days of 20 mg daily, untreated: Screening 66.6, Day 1 66.7): 70.1 ± 0.50%
- cardiac conduction ([8]; animal non-clinical safety testing): no cardiac conduction issues
- dose-limiting toxicity in GLP non-clinical safety testing [8]: diarrhea was dose-limiting
- off-target kinase inhibition (kinase): no significant off-target kinase inhibition
- change of HGAL protein level in circulating blood mononuclear cells (HGAL [9]; [15]): no clear change; also recorded: no apparent trend
- HGAL intracellular level, % of population ± CV, Day 28 (HGAL [9]; CD4+ T cells, untreated: Screening 12.7, Day 1 22.1): 8.6 ± 0.58%
- HGAL intracellular level, % of population ± CV, Day 28 (HGAL [9]; CD8+ T cells, untreated: Screening 25, Day 1 30.3): 17 ± 0.63%
- HGAL intracellular level, % of population ± CV, Day 28 (HGAL [9]; CD14+ Monocytes, untreated: Screening 83.9, Day 1 87.5): 88.3 ± 0.64%
- HGAL intracellular level, % of population ± CV, Day 28 (HGAL [9]; CD19+ B cells, untreated: Screening 2.44, Day 1 11.2): 8.33 ± 0.39%
- change of HGAL expression in CD14+ monocytes (HGAL [9]; after 28 days of treatment): did not decrease
- Lyn protein level in vitro (Lyn [10]): significantly decreased
- response of lymphoma (Lugano classification criteria) [11]: disease progression; also recorded: progression of the volume of lymphoma
- change of Lyn protein level in circulating blood mononuclear cells (Lyn [12]; [15]): no clear change; also recorded: no apparent trend; also recorded: no significant decrease
- Lyn intracellular level, % of population ± CV, Day 28 (Lyn [12]; CD4+ T cells, untreated: Screening 13.7, Day 1 20): 28.7 ± 0.37%
- Lyn intracellular level, % of population ± CV, Day 28 (Lyn [12]; CD8+ T cells, untreated: Screening 17.6, Day 1 25.8): 33.3 ± 0.31%
- Lyn intracellular level, % of population ± CV, Day 28 (Lyn [12]; CD14+ Monocytes, untreated: Screening 51.4, Day 1 40.5): 66.6 ± 0.59%
- Lyn intracellular level, % of population ± CV, Day 28 (Lyn [12]; CD19+ B cells, untreated: Screening 8.33, Day 1 12.4): 12.1 ± 0.15%
- BTK modification and downstream signaling [13]: profoundly inhibited
- hERG interaction (hERG): no significant hERG interaction
- change of NMT2 protein level in circulating blood mononuclear cells (NMT2; 20 mg daily, 28 days, all cell populations with the exception of monocytes): no clear change; also recorded: very stable
- NMT2 intracellular level, % of population ± CV, Day 28 (NMT2; CD4+ T cells, untreated: Screening 22.8, Day 1 25.7): 35.3 ± 0.36%
- NMT2 intracellular level, % of population ± CV, Day 28 (NMT2; CD8+ T cells, untreated: Screening 11, Day 1 12.7): 18.7 ± 0.33%
- NMT2 intracellular level, % of population ± CV, Day 28 (NMT2; CD14+ Monocytes, untreated: Screening 6.21, Day 1 6.7): 11.7 ± 0.17%
- NMT2 intracellular level, % of population ± CV, Day 28 (NMT2; CD19+ B cells, untreated: Screening 31.8, Day 1 29): 33.3 ± 0.24%
- change of NMT2 protein level in monocytes (NMT2; end of the first cycle): increased
